What follows are compounds tested against T1, estrogen receptor (Homo sapiens, UniProt P03372) (assay: Alkaline phosphatase (AP) assay in ECC-1 cells, agonist mode (no E2) and antagonist mode (500 pM E2)). Details: 3 days, AP activity normalized to 500 pM E2 alone, agonist mode without E2, antagonist mode with 500 pM E2.
T1 construct: endogenous in cells; host or cells: ECC-1 cells
T1 sequence (P03372 1-595): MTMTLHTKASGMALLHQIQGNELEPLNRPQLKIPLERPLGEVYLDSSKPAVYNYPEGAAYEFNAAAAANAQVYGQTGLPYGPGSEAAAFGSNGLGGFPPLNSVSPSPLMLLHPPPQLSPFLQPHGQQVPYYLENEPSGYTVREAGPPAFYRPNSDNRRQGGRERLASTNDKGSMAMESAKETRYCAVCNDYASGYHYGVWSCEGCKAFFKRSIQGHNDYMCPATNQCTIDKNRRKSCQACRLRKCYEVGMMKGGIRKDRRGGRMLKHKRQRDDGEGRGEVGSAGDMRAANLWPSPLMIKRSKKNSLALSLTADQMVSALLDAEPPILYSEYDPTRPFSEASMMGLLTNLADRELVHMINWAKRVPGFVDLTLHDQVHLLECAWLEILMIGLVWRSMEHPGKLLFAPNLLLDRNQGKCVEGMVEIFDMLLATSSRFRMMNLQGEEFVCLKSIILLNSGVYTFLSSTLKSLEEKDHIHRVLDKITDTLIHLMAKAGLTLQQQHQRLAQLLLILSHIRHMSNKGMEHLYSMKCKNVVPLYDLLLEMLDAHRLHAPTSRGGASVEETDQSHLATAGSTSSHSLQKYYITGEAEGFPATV
Type: cell-based
Procedure: ECC-1 cells were trypsinized and resuspended in hormone-depleted media and plated at a density of 15 k cells per well into a 96-well plate for at least 4 hours. Cells were treated with test compounds in the absence of E2 (for agonist mode) or in the presence of 500 pM E2 (for antagonist mode) for 3 days and plates were subsequently frozen at −80° C. Thawed plates were incubated with a chromogenic substrate of AP, p-nitrophenyl phosphate (Thermo Fisher Scientific), for 40 minutes at 42° C., and absorbances were read at 405 nm. AP activity was normalized to the activity of 500 pM E2 alone.
The compound numbers correspond to the compound numbers of Table 1 and 2. Compounds having an activity designated as “+” provided estrogen receptor agonism having (i) at least 80% increase in the E2-normalized signal in the AP assay (agonist mode) and (ii) no more than 80% reduction in the E2-normalized signal in the AP assay (antagonist mode). Compounds having an activity designated as “++” provided estrogen receptor antagonism having (i) between 10% and 80% increase in the E2-normalized signal in the AP assay (agonist mode) and (ii) between 10% and 80% reduction in the E2-normalized signal in the AP assay (antagonist mode).

| SMILES | Activity (estrogen receptor modulation, agonism and antagonism) |
| --- | --- |
| C[C@@H]1Cc2c([nH]c3ccccc23)[C@@H](c2ccc(CC3CN(CCCF)C3)s2)N1CC(F)(F)C(F)F [Example I-27, (1S,3R)-1-(5-((1-(3-fluoropropyl)azetidin-3-yl)methyl)thiophen-2-yl)-3-methyl-2-(2,2,3,3-tetrafluoropropyl)-2,3,4,9-tetrahydro-1H-pyrido[3,4-b]indole] | ++ (estrogen receptor antagonism having (i) between 10% and 80% increase in the E2-normalized signal in the AP assay (agonist mode) and (ii) between 10% and 80% reduction in the E2-normalized signal in the AP assay (antagonist mode)) |
| C[C@@H]1Cc2c([nH]c3ccccc23)[C@@H](c2ccc(CC3CN(CCC(F)(F)F)C3)s2)N1CC(C)(C)F [Example I-15, 3-({5-[(1S,3R)-2-(2-fluoro-2-methylpropyl)-3-methyl-1H,2H,3H,4H,9H-pyrido[3,4-b]indol-1-yl]thiophen-2-yl}methyl)-1-(3,3,3-trifluoropropyl)azetidine] | ++ (estrogen receptor antagonism having (i) between 10% and 80% increase in the E2-normalized signal in the AP assay (agonist mode) and (ii) between 10% and 80% reduction in the E2-normalized signal in the AP assay (antagonist mode)) |
| COCCCN1CC(Cc2ccc([C@@H]3c4[nH]c5ccccc5c4C[C@@H](C)N3CC(F)(F)CO)s2)C1 [Example I-53, 2,2-difluoro-3-[(1S,3R)-1-[5-[[1-(3-methoxypropyl)azetidin-3-yl]methyl]-2-thienyl]-3-methyl-1,3,4,9-tetrahydropyrido[3,4-b]indol-2-yl]propan-1-ol] | ++ (estrogen receptor antagonism having (i) between 10% and 80% increase in the E2-normalized signal in the AP assay (agonist mode) and (ii) between 10% and 80% reduction in the E2-normalized signal in the AP assay (antagonist mode)) |
| C[C@@H]1Cc2c([nH]c3ccccc23)[C@@H](c2cnc(N[C@H]3CCCN(CCCF)C3)s2)N1CC(F)(F)CO [Example I-66] | ++ (estrogen receptor antagonism having (i) between 10% and 80% increase in the E2-normalized signal in the AP assay (agonist mode) and (ii) between 10% and 80% reduction in the E2-normalized signal in the AP assay (antagonist mode)) |
| CCCN1CC(Cc2cnc([C@@H]3c4[nH]c5ccccc5c4C[C@@H](C)N3CC(F)(F)CO)s2)C1 [Example I-50, 2,2-difluoro-3-[(1S,3R)-3-methyl-1-[5-[(1-propylazetidin-3-yl)methyl]thiazol-2-yl]-1,3,4,9-tetrahydropyrido[3,4-b]indol-2-yl]propan-1-ol] | ++ (estrogen receptor antagonism having (i) between 10% and 80% increase in the E2-normalized signal in the AP assay (agonist mode) and (ii) between 10% and 80% reduction in the E2-normalized signal in the AP assay (antagonist mode)) |
| C[C@@H]1Cc2c([nH]c3ccccc23)[C@@H](c2cnc(CC3CN(CCCF)C3)s2)N1CC(F)(F)CO [Example I-40, 2,2-difluoro-3-[(1S,3R)-1-[2-[[1-(3-fluoropropyl)azetidin-3-yl]methyl]thiazol-5-yl]-3-methyl-1,3,4,9-tetrahydropyrido[3,4-b]indol-2-yl]propan-1-ol] | +++ (estrogen receptor antagonism (i) with pIC50 greater than 7.5 and at least a 10% reduction in the E2-normalized signal in the AP assay (antagonist mode); and no more than 10% increase in E2-normalized signal in the AP assay (agonist mode)) |
| CCCN1CC(Cc2ncc([C@@H]3c4[nH]c5ccccc5c4C[C@@H](C)N3CC(C)(C)F)s2)C1 [Example I-7, 5-((1S,3R)-2-(2-fluoro-2-methylpropyl)-3-methyl-2,3,4,9-tetrahydro-1H-pyrido[3,4-b]indol-1-yl)-2-((1-propylazetidin-3-yl)methyl)thiazole] | ++ (estrogen receptor antagonism having (i) between 10% and 80% increase in the E2-normalized signal in the AP assay (agonist mode) and (ii) between 10% and 80% reduction in the E2-normalized signal in the AP assay (antagonist mode)) |
| C#CCN1CC(Cc2ccc([C@@H]3c4[nH]c5ccccc5c4C[C@@H](C)N3CC(C)(C)F)s2)C1 [Example I-58, (1S,3R)-2-(2-fluoro-2-methyl-propyl)-3-methyl-1-[5-[(1-prop-2-ynylazetidin-3-yl)methyl]-2-thienyl]-1,3,4,9-tetrahydropyrido[3,4-b]indole] | + (estrogen receptor agonism having (i) at least 80% increase in the E2-normalized signal in the AP assay (agonist mode) and (ii) no more than 80% reduction in the E2-normalized signal in the AP assay (antagonist mode)) |
| CCCN1CC[C@@H](Cc2ncc([C@@H]3c4[nH]c5ccccc5c4C[C@@H](C)N3CC(F)(F)F)s2)C1 [Example I-49, 5-[(1S,3R)-3-methyl-2-(2,2,2-trifluoroethyl)-1,3,4,9-tetrahydropyrido[3,4-b]indol-1-yl]-2-[[(3S)-1-propylpyrrolidin-3-yl]methyl]thiazole] | + (estrogen receptor agonism having (i) at least 80% increase in the E2-normalized signal in the AP assay (agonist mode) and (ii) no more than 80% reduction in the E2-normalized signal in the AP assay (antagonist mode)) |
| CCCN1CC[C@@H](Cc2ncc([C@@H]3c4[nH]c5ccccc5c4C[C@@H](C)N3CC(F)F)s2)C1 [Example I-45, 5-[(1S,3R)-2-(2,2-difluoroethyl)-3-methyl-1,3,4,9-tetrahydropyrido[3,4-b]indol-1-yl]-2-[[(3S)-1-propylpyrrolidin-3-yl]methyl]thiazole] | + (estrogen receptor agonism having (i) at least 80% increase in the E2-normalized signal in the AP assay (agonist mode) and (ii) no more than 80% reduction in the E2-normalized signal in the AP assay (antagonist mode)) |
| C[C@@H]1Cc2c([nH]c3ccccc23)[C@@H](c2cnc(C[C@@H]3CCN(CCCF)C3)s2)N1CC(F)(F)F [Example I-48, 2-[[(3S)-1-(3-fluoropropyl)pyrrolidin-3-yl]methyl]-5-[(1S,3R)-3-methyl-2-(2,2,2-trifluoroethyl)-1,3,4,9-tetrahydropyrido[3,4-b]indol-1-yl]thiazole] | ++ (estrogen receptor antagonism having (i) between 10% and 80% increase in the E2-normalized signal in the AP assay (agonist mode) and (ii) between 10% and 80% reduction in the E2-normalized signal in the AP assay (antagonist mode)) |
| C[C@@H]1Cc2c([nH]c3ccccc23)[C@@H](c2cnc(C[C@@H]3CCN(CCCF)C3)s2)N1CC(F)(F)CO [Example I-42] | ++ (estrogen receptor antagonism having (i) between 10% and 80% increase in the E2-normalized signal in the AP assay (agonist mode) and (ii) between 10% and 80% reduction in the E2-normalized signal in the AP assay (antagonist mode)) |
| C[C@@H]1Cc2c([nH]c3ccccc23)[C@@H](c2ccc(CC3CN(CCC(F)F)C3)s2)N1CC(C)(C)F [Example I-18, 1-(3,3-difluoropropyl)-3-({5-[(1S,3R)-2-(2-fluoro-2-methylpropyl)-3-methyl-1H,2H,3H,4H,9H-pyrido[3,4-b]indol-1-yl]thiophen-2-yl}methyl)azetidine] | ++ (estrogen receptor antagonism having (i) between 10% and 80% increase in the E2-normalized signal in the AP assay (agonist mode) and (ii) between 10% and 80% reduction in the E2-normalized signal in the AP assay (antagonist mode)) |
| C[C@@H]1Cc2c([nH]c3ccccc23)[C@@H](c2cnc(C[C@H]3CCN(CCCF)C3)s2)N1CC(F)(F)F [Example I-33, 2-(((R)-1-(3-fluoropropyl)pyrrolidin-3-yl)methyl)-5-((1S,3R)-3-methyl-2-(2,2,2-trifluoroethyl)-2,3,4,9-tetrahydro-1H-pyrido[3,4-b]indol-1-yl)thiazole] | ++ (estrogen receptor antagonism having (i) between 10% and 80% increase in the E2-normalized signal in the AP assay (agonist mode) and (ii) between 10% and 80% reduction in the E2-normalized signal in the AP assay (antagonist mode)) |
| C[C@@H]1Cc2c([nH]c3ccccc23)[C@@H](c2ccc(CC3CN(CCC4COC4)C3)s2)N1CC(F)(F)CO [Example I-59, 2,2-difluoro-3-((1S,3R)-3-methyl-1-(5-((1-(2-(oxetan-3-yl)ethyl)azetidin-3-yl)methyl)thiophen-2-yl)-1,3,4,9-tetrahydro-2H-pyrido[3,4-b]indol-2-yl)propan-1-ol] | + (estrogen receptor agonism having (i) at least 80% increase in the E2-normalized signal in the AP assay (agonist mode) and (ii) no more than 80% reduction in the E2-normalized signal in the AP assay (antagonist mode)) |

Source: patent US20260055103A1, “2,3,4,9-TETRAHYDRO-1H-PYRIDO[3,4-B]INDOLE DERIVATIVES AS ESTROGEN RECEPTOR MODULATORS FOR THE TREATMENT OF CANCER” (Olema Pharmaceuticals, Inc., priority 2022, published 2026)
